Test results: patent US20250255958A1, “VIRUS-FREE CRISPR CAR NATURAL KILLER CELLS” (Wisconsin Alumni Research Foundation, priority 2024, published 2025)
Several values for one entry are separate records, joined by “and”; a condition that tells them apart may be missing. Equal values may be shown once.

Assays:
[1] = target: T1, DNA-dependent protein kinase (DNA-PK) (Homo sapiens, UniProt P78527); type: cell-based
T1 construct: NK cells were nucleofected on day 4 with the RNP complex and dsDNA, and incubated with M3814 at various concentrations; endogenous in cells; host or cells: primary peripheral-blood NK cells
Procedure: Nucleofection: NK-cells were nucleofected on day 4, unless otherwise described for optimization experiments. Post-nucleofection recovery medium (Complete NK MACS® medium (Miltenyi) with 100 IU/mL IL-2 (Peprotech) and 2 ng/mL IL-15 (Peprotech)+/−0.6 uM M3814 (Selleck Chem)) was prepared, with M3814 added at 1.2× the working concentration to account for future dilution. For M3814 related optimization experiments, multiple aliquots of post-recovery medium were prepared with a corresponding concentration of M3814. 150 μL of M3814 recovery medium was plated into individual wells of a 96-well round bottom plate for each replicate and set aside in the incubator. PB-NK cells were harvested and counted using the Countess® II FL Automated Cell Counter (Thermo Fisher Scientific) with 0.4% Trypan Blue viability stain (Thermo Fisher Scientific). 5e5 cells were aliquoted into individual 1.5 mL Eppendorf Tubes® for each nucleofection replicate. While the RNP complexes incubated, the cells were pelleted at 100 g for 10 minutes, and 3 μg (1.5 μL) of dsDNA templates were aliquoted into PCR tubes for each replicate. Following incubation, the RNP complexes were added to the dsDNA templates and were allowed to incubate for 3-5 minutes at room temperature. Cell pellets were resuspended in P3 buffer with 22% supplement (Lonza), and combined with the RNP+dsDNA mixture, for a total volume of […]. Samples were added to the 24 μL reaction cuvettes (Lonza) and were nucleofected using the EH-100 program (Lonza Amaxa™ 4D-Nucleofector®), unless specified otherwise for optimization experiments. Immediately after nucleofection, 100 μL of pre-warmed recovery medium (no M3814) was added to each of the cuvette wells, and samples were rested at 37° C. for 15 minutes. Finally, samples were transferred from the cuvette to the 96-well plate containing pre-warmed recovery medium with M3814. After 24 hours, nucleofected NK cells were combined with irradiated K562-mb15-41BBL (100 Gy) at a 1:2 ratio in complete NK MACS medium with 100 IU/mL IL-2 and 2 ng/mL IL-15.
NK cells were nucleofected on day 4 with the RNP complex and dsDNA, and incubated with M3814 at various concentrations. Nucleofected cells were expanded for one week and assayed by flow cytometry for NKG2A knock-out and transgene expression.

KLRC1 gene = test: Indel formation by NGS after Cas9 RNP nucleofection of NK-92 cells; type: cell-based, human; settings: SpCas9 RNP, NGS after two weeks of culture, exon 3
Procedure: On-target editing analysis via Next Generation Sequencing: Genomic DNA was extracted and indel formation was analyzed via next generation sequencing (Illumina) as previously described in the art. Briefly, edited amplicons were amplified and purified using genomic PCR and SPRI cleanup, respectively. A second PCR was performed with indexing primers to attach unique dual identifiers (Illumina®) to the amplicons. After a second SPRI cleanup, samples were combined and run on the Illumina® MiniSeq™ per the manufacturer's instructions and analyzed using the CRISPR RGEN software.
The editing strategy to improve NK potency against solid tumors involves knocking out the NKG2A receptor that can inhibit cytotoxicity within solid tumors (FIG. 1A), while simultaneously conferring specificity of cytotoxicity to a target antigen on the cancer. To knock out the NKG2A receptor, three single-guide RNAs (sgRNAs) were designed against several common coding exons in the KLRC1 gene (FIG. 1B). Ribonucleoproteins (RNPs) were generated upon the complexation of these sgRNAs with SpCas9 to generate double-stranded DNA breaks at these targets within KLRC1. NK-92 cells, a human cell line derived from non-hodgkin lymphoma, were nucleofected with RNPs containing one of these sgRNAs, and assessed for insertions or deletions (indels) around the targeted site after two weeks of cell culture. […]

human genome = test: Genome-wide off-target analysis by CHANGE-seq; type: biochemical
Procedure: Off-target analysis via genome wide CHANGE-seq: The Gentra® Puregene® kit (Qiagen, Germantown, MD) was used to extract genomic DNA from unedited primary NK cells per the manufacturer's instructions. Genomic analysis was performed by CHANGE-Seq as described previously in the art. In short, genomic DNA underwent tagmentation with a custom Tn5-transposome, and was gap repaired with HiFi HotStart Uracil+ Ready Mix (Kapa Biosystems, Wilmington, MA). USER enzyme (NEB, Ipswich, MA) and T4 polynucleotide was then used to treat the gap-repaired DNA. DNA circularization was performed using T4 DNA ligase (NEB, Ipswich, MA), followed by treatment with a mixture of exonucleases to remove residual linear DNA. In vitro cleavage reactions were performed on the circularized DNA using SpCas9 protein (NEB, Ipswich, MA) and KLRC1 sgRNA. Cleaved products were incubated with proteinase K (NEB, Ipswich, MA), A-tailed, ligated with a hairpin adapter (NEB, Ipswich, MA), and treated with USER enzyme (NEB, Ipswich, MA). Products were amplified by PCR with the Kapa HiFi polymerase (Kapa Biosystems, Wilmington, MA), and libraries were quantified by qPCR (Kapa Biosystems, Wilmington, MA). Libraries were sequenced with 150 bp paired-end reads on the Illumina NextSeq2000 instrument. CHANGE-seq data analyses were performed as described previously.

KLRC1 = settings: primary T cells, Bexte et al.; cited from earlier work
NKG2A = settings: Huang et al.; cited from earlier work

Row | Compound | cell expansion after nucleofection [1] | improvement of HDR outcomes [1] | percent of NKG2A− cells [1] | percentage of transgene expression [1] | indel formation (KLRC1 gene) [%] | sites having off-target activity near a transcription start site (TSS) (human genome; CHANGE-seq) | sites having off-target nuclease activity within exons (human genome; CHANGE-seq) | CHANGE-seq specificity ratio (human genome; on-target reads divided by sum of total reads) | indel frequency (KLRC1) | NKG2A knock-out (NKG2A) | indel frequencies (NKG2A) [%]
1 | COc1ccc([C@@H](O)c2cc(-c3ncnc4cc(N5CCOCC5)ccc34)c(F)cc2Cl)nn1 [M3814] | did not affect cell expansion | two-fold | around 75% | 11.9% and 12.8% |  |  |  |  |  |  | 
2 | GGTCTGAGTAGATTACTCCT(TGG) (guide GGUCUGAGUAGAUUACUCCU; listed as RNA, chemistry not given here) [gRNA1] |  |  |  |  | 98 | 8 | 10 | 0.038 | 58-80% | less than 25% | > 80
